Test results: patent US12310975B2, “Modulators of BCL6 proteolysis and associated methods of use” (Arvinas Operations, Inc., priority 2019, dated 2025)

Biological target: BCL6 (Homo sapiens (Human), UniProt P41182)
Experiment: Immunofluorescence high content imaging of BCL6 degradation in T47D cells
Assay type: cell-based
How it was run: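 T47D cells were treated 3 days at 37 °C with an 11-point 3-fold dilution series (top 0.1 or 1 μM), then fixed, permeabilized and immunostained for BCL6 with Alexa-488 secondary, CellMask and Hoechst. BCL6 signal was imaged at 10×, 4 fields/well, with top-hat smoothing.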

Row | Structure (SMILES) | IC50 | Dmax (T47D) | further results
1 | CC(=O)COc1cc2cc(Nc3nc(C#CC4CCCN(c5ccc6c(c5)C(=O)N(C5CCC(=O)NC5=O)C6=O)C4)ncc3Cl)ccc2n(C)c1=O (stereo not drawn) [compound 181, 5-(3-((5-chloro-4-((1-methyl-2-oxo-3-(2-oxopropoxy)-1,2-dihydroquinolin-6-yl)amino)pyrimidin-2-yl)ethynyl)piperidin-1-yl)-2-(2,6-dioxopiperidin-3-yl)isoindoline-1,3-dione] | ≥ 100 nM | – | –
2 | CNC(=O)COc1cc2cc(Nc3nc(N4CCC(c5cn(CCOCCOCCOCCOCC(=O)N[C@H](C(=O)N6C[C@H](O)C[C@H]6C(=O)N[C@@H](C)c6ccc(-c7scnc7C)cc6)C(C)(C)C)nn5)CC4)ncc3Cl)ccc2n(C)c1=O [compound 108, (2S,4R)-1-((S)-2-(tert-butyl)-17-(4-(1-(5-chloro-4-((1-methyl-3-(2-(methylamino)-2-oxoethoxy)-2-oxo-1,2-dihydroquinolin-6-yl)amino)pyrimidin-2-yl)piperidin-4-yl)-1H-1,2,3-triazol-1-yl)-4-oxo-6,9,12,15-tetraoxa-3-azaheptadecanoyl)-4-hydroxy-N-((S)-1-(4-(4-methylthiazol-5-yl)phenyl)ethyl)pyrrolidine-2-carboxamide] | – | – | DC50 (class symbols A-D, read-out: EC50 (nM)*): 50 to 100 nM
3 | CCC(C1CCN(c2ccc3c(c2)C(=O)N(C2CCC(=O)NC2=O)C3=O)CC1)N1CCN(c2ncc(Cl)c(Nc3ccc4c(c3)cc(OCC(=O)NC)c(=O)n4C)n2)CC1 (stereo not drawn) [compound 337, 2-{[6-({5-chloro-2-[4-(1-{1-[2-(2,6-dioxopiperidin-3-yl)-1,3-dioxo-2,3-dihydro-1H-isoindol-5-yl]piperidin-4-yl}propyl)piperazin-1-yl]pyrimidin-4-yl}amino)-1-methyl-2-oxo-1,2-dihydroquinolin-3-yl]oxy}-N-methylacetamide] | – | – | Dmax (T47D cells): < 50%
4 | CC(=O)COc1cc2cc(Nc3nc(N4CCC(OC5CN(c6ccc7c(c6)C(=O)N(C6CCC(=O)NC6=O)C7=O)C5)CC4)ncc3Cl)ccc2n(C)c1=O (stereo not drawn) [compound 178, 5-(3-((1-(5-chloro-4-((1-methyl-2-oxo-3-(2-oxopropoxy)-1,2-dihydroquinolin-6-yl)amino)pyrimidin-2-yl)piperidin-4-yl)oxy)azetidin-1-yl)-2-(2,6-dioxopiperidin-3-yl)isoindoline-1,3-dione] | 10 to 50 nM | < 50% | –

The next lines start with results.

Row | IC50 | Dmax (T47D) | Structure (SMILES) | further results
5 | ≥ 100 nM | – | CNC(=O)Cc1cc2cc(Nc3nc(N4CCC(CN5CCN(c6ccc7c(c6)C(=O)N(C6CCC(=O)NC6=O)C7=O)CC5)CC4)ncc3Cl)ccc2n(C)c1=O (stereo not drawn) [compound 239, 2-(6-((5-chloro-2-(4-((4-(2-(2,6-dioxopiperidin-3-yl)-1,3-dioxoisoindolin-5-yl)piperazin-1-yl)methyl)piperidin-1-yl)pyrimidin-4-yl)amino)-1-methyl-2-oxo-1,2-dihydroquinolin-3-yl)-N-methylacetamide] | –
6 | – | ≥ 70% | CNC(=O)COc1cc2cc(Nc3cc(N4CCN(CC5CCN(c6ccc7c(c6)C(=O)N(C6CCC(=O)NC6=O)C7=O)CC5)CC4)ncc3Cl)ccc2n(C)c1=O (stereo not drawn) [compound 253, 2-((6-((5-chloro-2-(4-((1-(2-(2,6-dioxopiperidin-3-yl)-1,3-dioxoisoindolin-5-yl)piperidin-4-yl)methyl)piperazin-1-yl)pyridin-4-yl)amino)-1-methyl-2-oxo-1,2-dihydroquinolin-3-yl)oxy)-N-methylacetamide] | –
7 | 10 to 50 nM | 50 to 70% | CNC(=O)COc1cc2cc(Nc3nc(N4CCN(CC5CCN(c6ccc7c(c6)C(=O)N(C6CCC(=O)NC6=O)C7=O)CC5)CC4)ncc3Cl)ccc2n(C(C)C)c1=O (stereo not drawn) [Exemplary Compound 263, 2-[[6-([5-chloro-2-[4-([1-[2-(2,6-dioxopiperidin-3-yl)-1,3-dioxoisoindol-5-yl]piperidin-4-yl]methyl)piperazin-1-yl]pyrimidin-4-yl]amino)-1-isopropyl-2-oxoquinolin-3-yl]oxy]-N-methylacetamide] | –
